From ChEMBL document CHEMBL1149221, “Terephthalamide derivatives as mimetics of the helical region of Bak peptide target Bcl-xL protein” (Bioorg Med Chem Lett, 2004)

What follows are compounds tested against Bcl-2-like protein 1 (Homo sapiens, UniProt Q07817) (assay: Binding affinity for Bcl-xL was assessed by a fluorescence polarization assay using a fluorescently labeled 16-mer Bak-peptide).
Sequence of Bcl-2-like protein 1 (Q07817 whole entry): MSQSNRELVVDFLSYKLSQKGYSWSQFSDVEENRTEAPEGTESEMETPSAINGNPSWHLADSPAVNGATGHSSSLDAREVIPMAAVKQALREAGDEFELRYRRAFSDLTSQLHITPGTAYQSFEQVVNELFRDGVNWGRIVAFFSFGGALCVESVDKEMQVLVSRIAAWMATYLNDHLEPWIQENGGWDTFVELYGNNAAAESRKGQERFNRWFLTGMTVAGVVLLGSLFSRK

Ki	SMILES
> 30 µM	CC(C)C[C@H](NC(=O)c1ccc(C(=O)N(CC(C)C)C(C)C(=O)O)cc1OC(C)C)C(=O)O (stereo partly specified)
1.01 µM	CC(C)C[C@H](NC(=O)c1ccc(C(=O)N(C(C)C)C(C)C)cc1Oc1ccccc1)C(=O)O
> 30 µM	COC(=O)CNC(=O)c1ccc(C(=O)N(C)C)cc1
10.9 µM	COC(=O)[C@@H](NC(=O)c1ccc(C(=O)N(C(C)C)C(C)C)cc1OC(C)C)c1ccccc1
7.63 µM	CC(C)C[C@H](NC(=O)c1ccc(C(=O)N(C(C)C)C(C)C)cc1Oc1cccc2ccccc12)C(=O)O

Continued, compound first:

SMILES	Ki
COC(=O)[C@H](C)NC(=O)c1ccc(C(=O)N(C(C)C)C(C)C)cc1OC(C)C	11 µM
CC(C)C[C@H](NC(=O)c1ccc(C(=O)N(CC(C)C)C(C(=O)O)C(C)C)cc1OC(C)C)C(=O)O (stereo partly specified)	> 30 µM
CC(C)CC(NC(=O)c1ccc(C(=O)N[C@@H](CC(C)C)C(=O)O)c(Oc2ccccc2)c1)C(=O)O (stereo partly specified)	> 30 µM
COC(=O)[C@@H](NC(=O)c1ccc(C(=O)N(C(C)C)C(C)C)cc1OC(C)C)C(C)C	5.85 µM
COC(=O)[C@@H](CC(C)C)NC(=O)c1ccc(C(=O)N(C(C)C)C(C)C)cc1OC	1.78 µM
CC(C)CC(NC(=O)c1ccc(C(=O)N[C@@H](CC(C)C)C(=O)O)c(Oc2cccc3ccccc23)c1)C(=O)O (stereo partly specified)	> 30 µM
